The values below come from patent publication US20050034187A1, “Modified tet-inducible system for regulation of gene expression in plants” (priority 2000, published 2005).

Entries after “also recorded” stand apart in the source; their conditions may differ.

Series [1] has as its system wild type tet Receptor and TripleX-driven GUS gene (pAC489/pAC499 double transformants). As to the kind of experiment: Seed germination test: induction of GUS gene in seedlings. The class given is in vivo, tobacco. The conditions noted are these: for inducing activity (GUS reporter gene): seed germination test, FIG. 18. A general note: In a reporter assay the amount or activity of a reporter protein is the signal.

Series [2] concerns wild type tet Receptor and GUS gene controlled by TripleX promoter (pAC489/pAC499 double transformants). As to the kind of experiment: Induction of the tet system in protoplast assays (GUS fluorescent assay). The class given is cell-based, tobacco. The conditions noted are these: for magnitude of derepression (induction of GUS): protoplasts, seventh day of cultivation, FIG. 17. As to the method: Logarithmic scale is used for concentration axis.
Protoplasts were cultivated in the dark at 26° C. […] 100 μl of supernatant was used for the assay.

Series [3] deals with tetracycline-sensitive bacteria. To be noted: concentrations of 0.3 mg/l and lower; according to supplier; cited from earlier work.
The test system of the next series is Mesophyll protoplasts. Briefly: Toxicity of chemicals to protoplasts (division rate). The conditions noted are these: FIG. 17.
In a further series the test system is tobacco seedlings. Briefly: Visual evaluation of seedlings for toxicity in seed germination test. From the text: The purpose of this experiment was to determine the concentration curve for selected analogs. Seeds of homozygous tobacco carrying wild type tet Receptor and TripleX-driven GUS gene (pAC489/pAC499 double transformants) were germinated in presence of several analogs at different concentrations. Seedlings were visually evaluated for toxicity, collected and assayed. Each point on the graph represents an average of three samples.
Seeds of T2 homozygous tobacco carrying wild type tet Receptor and TripleX-driven GUS gene were germinated in the presence of several new analogs at different concentrations. Seedlings were visually evaluated for toxicity, collected and assayed.
The next step in evaluating the analogs was to determine their respective concentration curve. Seeds of homozygous tobacco carrying wild type tet Receptor and TripleX-driven GUS gene (pAC489/pAC499 double transformants) were germinated in the presence of several analogs at different concentrations. Seedlings were visually evaluated for toxicity, collected and assayed.

A further series concerns the target lac repressor (Escherichia coli, UniProt P03023). The conditions noted are these: Barkley and Bourgeois, 1980; cited from earlier work.
The next series relates to cells. The conditions noted are these: cited from earlier work.
Series [4] deals with pAC499 (TripleX/GUS) with pACAG084 ((OCS)3MAS/nTR) or pACAG049 (MAR-(OCS)3MAS/nTR). As to the kind of experiment: Time series of GUS induction in whole rooted plants. It counts as in vivo, tobacco. To be noted: roots, tetracycline 2 mg/l, FIG. 16. As for the experimental part:
FIG. 16—Induction of GUS Gene in Double Transformants: Time Series. Time series were run with the best double transformants carrying pAC499 (TripleX/GUS) and either of pACAG084 ((OCS)3MAS/nTR) or pACAG049 (MAR-(OCS)3MAS/nTR). Three weeks-old rooted plants were transferred from agar to magenta boxes with liquid medium and tetracycline 2 mg/l. Tissue samples were regularly taken from roots and assayed for GUS.
Time series were run with the best double transformants carrying pAC499 (TripleX/GUS) and either of pACAG084 ((OCS)3MAS/nTR) or pACAG049 (MAR-(OCS)3MAS/nTR). Three week-old rooted plants were transferred from agar to magenta boxes with liquid medium and tetracycline 2 mg/l. Tissue samples were regularly taken from leaves and roots and assayed for GUS. […] The latter result was consistently observed, as well as, in experiments from the literature.

Chain of lac repressor (P03023 whole entry): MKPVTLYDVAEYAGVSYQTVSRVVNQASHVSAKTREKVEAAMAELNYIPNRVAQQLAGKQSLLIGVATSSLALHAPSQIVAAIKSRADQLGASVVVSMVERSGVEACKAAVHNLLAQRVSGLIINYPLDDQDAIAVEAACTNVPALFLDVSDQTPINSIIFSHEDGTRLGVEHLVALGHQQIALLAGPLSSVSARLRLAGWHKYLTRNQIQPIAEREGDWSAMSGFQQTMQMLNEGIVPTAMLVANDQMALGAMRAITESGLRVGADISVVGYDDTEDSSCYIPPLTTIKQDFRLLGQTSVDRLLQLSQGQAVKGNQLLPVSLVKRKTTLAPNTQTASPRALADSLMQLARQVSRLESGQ
Protocol for Mesophyll protoplasts: Mesophyll protoplasts were isolated from T2 transgenic tobacco carrying both wild type tet Receptor and GUS gene controlled by TripleX promoter (pAC489/pAC499 double transformants) and were cultivated at a concentration of 5×10^4 cells/ml in liquid KM medium supplemented with tet analogs at 2-5 mg/l in the dark at 26° C. Total and divided protoplasts were counted and GUS fluorescent assays were performed on the seventh day of cultivation. Toxicity of chemicals was evaluated by division rate—the number of divisions divided by the total number of viable cells and multiplied by 100. Each point on the graphs represents an average of three samples.
Protoplasts were cultivated in the dark at 26° C. First divisions were usually observed after 36-60 hours of cultivation; second and sometimes third divisions were visible beginning from the fifth day. Total and divided protoplasts were counted and GUS fluorescent assays performed on the seventh day. In all experiments protoplasts were counted in a fixed volume of 2 mm^3 using hemocytometer (Hausser Scientific Partnership). Toxicity of chemicals was evaluated by division rate—the number of divisions divided by the total number of viable cells and multiplied by 100. […] 100 μl of supernatant was used for the assay. […]

Regarding `Cc1c2c(c(O)c3c(O)cccc13)C(=O)[C@]1(O)C(=O)C(C(N)=O)=C(O)[C@@H](N(C)C)[C@@H]1C2` [1665-56-1, anhydrotetracycline], the “inducing activity (GUS reporter gene)” value in series [1] is reported as “negligible induction”. Moreover, in series [2], the “magnitude of derepression (induction of GUS)” value is “not a good derepressing agent; also recorded: able to induce the system”.
Turning to `CN(C)C1C(=O)C(C(N)=O)=C(O)C2(O)C(=O)C3=C(O)c4c(O)cccc4CC3CC12` (centres unmarked) [95702-03-7, 6-deoxy-6-demethyl tetracycline], the “inducing activity (GUS reporter gene)” value in series [1] was “higher than that of the industry standard, doxycycline”. The “induction of the GUS reporter gene” value in series [1] (summary of in vitro tests of several tetracycline analogs) was “very good induction”. Moreover, the “inducer potency compared with tetracycline” value in series [2] (concentrations of 0.3 mg/l and lower) was “more potent inducer at concentrations of 0.3 mg/l and lower”. The “magnitude of derepression (induction of GUS)” value in series [2] was “the same magnitude of derepression and toxicity as tetracycline”. Also, in series [3], the “toxicity to tetracycline-sensitive bacteria” value is listed as “not toxic to tetracycline-sensitive bacteria”. The “toxicity to plant cells” value in the series with Mesophyll protoplasts was “the same magnitude of derepression and toxicity as tetracycline”. In addition, the “toxicity compared with other inducers” value with tobacco seedlings (concentration curve experiment, FIG. 19) was “lower toxicity than doxycycline and tetracycline”.
As for `CN(C)C1C(=O)C(C(N)=O)=C(O)C2(O)C(=O)C3=C(O)c4c(O)ccc(Br)c4CC3CC12` (centres unmarked) [101057-85-6, 7-bromo-6-deoxy-6-demethyl tetracycline], the “inducing activity (GUS reporter gene)” value in series [1] was “moderate inducer”.
As to `CC(C)S[C@@H]1O[C@H](CO)[C@H](O)[C@H](O)[C@H]1O` [IPTG, isopropyl-B-D-thiogalactopyranoside], on lac repressor, the “reduction of the affinity of repressor for the operator” value was 300 fold. Besides, the “toxicity of the level required to induce a lac repressor system” value with cells is given as “cytotoxic to cells”.
With `CN(C)[C@@H]1C(O)=C(C(N)=O)C(=O)[C@@]2(O)C(O)=C3C(=O)c4c(O)cccc4[C@@](C)(O)[C@H]3C[C@@H]12` [tetracycline], the “magnitude of induction at maximum” value in series [4] is listed as 3.5 fold. In the series on tobacco seedlings (concentration of 10 mg/l, FIG. 19 experiment), the “toxicity evaluation (growth of plantlets)” value is listed as “slightly stunted growth of plantlets”.
